The source of these data is PubChem BioAssay AID1918958 (Molecular Pharmacology Branch, DTP, NCI, 2023).

For the experiment, the system named is NCI-H196 complex spheroid viability. The experiment in a line: Anticancer human tumor NCI-H196 cell line growth inhibition [LSD1].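 On all read-outs here: spheroids exposed to agents for 7 days before readout.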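 On viability, T/C: 100% = DMSO vehicle control viability.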 The settings on record: for viability, T/C: stronger effect = lower value. The source says:
Multicellular complex tumor spheroid response to LSD1 Inhibitor Iadademstat in combination with a variety of drugs and investigational agents in selected tumor cell lines
The current study was undertaken to assess response to LSD1 inhibitors in combination with standard-of-care drugs and investigational agents in solid tumor complex spheroid models as well as in the K-562 leukemia. Complex spheroids include a stromal component modeled by human endothelial cells (HUVEC) and fibroblasts modeled by human mesenchymal stem cells (MSCs). The concentration ranges selected for each drug and investigational agent were based upon clinically achievable concentrations if the clinical Cmax of the agent was known.
Compounds. The drugs and investigational agents used in this study are listed on Table 1. All of the agents used, including staurosporine (NSC755774) and gemcitabine (NSC613327), were obtained from the Developmental Therapeutics Program, NCI. FDA-approved anticancer drugs are available from the NCI at http://dtp.nci.nih.gov/branches/dscb/oncology_drugset_explanation.html. Drugs and investigational agents were >95% pure by proton nuclear magnetic resonance (NMR) and liquid chromatography/mass spectrometry (LC/MS). Stock solutions were prepared at 400x in DMSO, stored at -70 degrees C, and diluted in fresh medium prior to their use. The final concentration of DMSO in cell culture wells never exceeded 0.25% (v/v). The FDA-approved anticancer drug set is available from the Developmental Therapeutics Program at https://dtp.cancer.gov/organization/dscb/obtaining/available_plates.htm. All drugs and investigational agents were tested over a range starting from a high concentration at or near the clinical Cmax and decreasing in half-log increments. If the clinical Cmax for an agent had not been determined, the highest concentration tested was 10 microM.
Cell Lines. The patient-derived cancer cell (PDC) lines: 292921-168-R-J2-PDC, K24384-001-R-PDC, and 521955-158-R2-J5-PDC pancreatic carcinomas, 556581-035-R-J1 ovarian carcinoma, 324938-238-R-J1-PDC, 855422-203-R-J1-PDC and 883617-216-R-J1-PDC urothelial bladder carcinomas, 743489-274-T-PDC renal cell carcinoma, 138582-R-J1 Merkel cell tumor, K60290-347-R-J1 and K57222-313-R-J1-PDC glioblastomas, 653999-131-R-J2-PDC, LG0703-F948-PDC, and 349418-098-R-PDC non-small cell lung carcinomas, 885512-296-R-J2-PDC, 171881-019-R-J1-PDC breast carcinomas and 186277-243-T-J2-PDC and 233499-124-R-J2-PDC colon carcinomas were obtained from the NCI Patient-Derived Models Repository (PDMR, https://pdmr.cancer.gov). The established cell lines NCI/ADR-RES (RRID:CVCL_14520 and OVCAR-5 (RRID:CVCL_1628) ovarian carcinomas, 786-O (RRID:CVCL_1051) and A498 (RRID:CVCL_A498) renal cell carcinoma, NCI-H211 (ATCC, cat. CRL-5824; RRID:CVCL_1529), NCI-H196 (ATCC, cat. CRL-5823, RRID:CVCL_1509), SW 1271 (ATCC, cat. CRL-2177, RRID:CVCL_1716) and NCI-H1876 (ATCC, cat. CRL-5902, RRID:CVCL_1503) small cell lung carcinomas, MDA-MB-231 (RRID:CVCL_0062) and MDA-MB-468 (RRID:CVCL_0419)breast carcinomas (10-12). Pooled donor human umbilical vein endothelial cells (HUVEC, Lonza, cat. CC-2519) and human mesenchymal stem cells (hMSC, Lonza, cat. PT-2501) were purchased from Lonza (Walkersville, MD).
Cell Culture. All cells were maintained in an incubator at 37 degrees C and 5% CO2 with 95% humidity. The PDC lines were cultured according to standard operating procedures established by the NCI PDMR (https://pdmr.cancer.gov). Briefly all PDCs were thawed and cultured in Matrigel-coated flasks prepared with a working solution of 1X Ham's F-12 nutrient mix, without supplementation (Invitrogen, Waltham, MA, cat. 11765054), 100 U/mL penicillin-streptomycin (Invitrogen, cat. 15140122), and 2.5% Matrigel (Corning Inc., Corning, NY, cat. 354248) for the first three passages. […]

Setting [1] is: curve of first compound, second compound 0.1 µM.
Where [2] appears, read: curve of first compound, second compound 0.316 µM.
Where [3] appears, read: curve of first compound, second compound 1 µM.
Setting [4] is: curve of first compound, second compound 3.16 µM.
Setting [5] is: curve of first compound, second compound 10 µM.
The mark [6] stands for this setting: second compound 0.1 µM, first compound 0.0316 µM.
Setting [7] is: second compound 0.1 µM, first compound 0.1 µM.
The mark [8] stands for this setting: second compound 0.1 µM, first compound 0.316 µM.
[9] abbreviates: second compound 0.1 µM, first compound 1 µM.
Where [10] appears, read: second compound 0.316 µM, first compound 0.0316 µM.
The mark [11] stands for this setting: second compound 0.316 µM, first compound 0.1 µM.
Where [12] appears, read: second compound 0.316 µM, first compound 0.316 µM.
Setting [13] is: second compound 0.316 µM, first compound 1 µM.
The mark [14] stands for this setting: second compound 1 µM, first compound 0.0316 µM.
Where [15] appears, read: second compound 1 µM, first compound 0.1 µM.
Where [16] appears, read: second compound 1 µM, first compound 0.316 µM.
The mark [17] stands for this setting: second compound 1 µM, first compound 1 µM.
[18] abbreviates: second compound 3.16 µM, first compound 0.0316 µM.
Setting [19] is: second compound 3.16 µM, first compound 0.1 µM.
Where [20] appears, read: second compound 3.16 µM, first compound 0.316 µM.
The mark [21] stands for this setting: second compound 3.16 µM, first compound 1 µM.
[22] abbreviates: second compound 10 µM, first compound 0.0316 µM.
[23] abbreviates: second compound 10 µM, first compound 0.1 µM.
Where [24] appears, read: second compound 10 µM, first compound 0.316 µM.
Setting [25] is: second compound 10 µM, first compound 1 µM.

Molecules are shown by their SMILES. Where “and” joins values, the source holds several entries; their conditions need not be identical. Equal values may be shown once.

Turning to `Nc1ccn(C2OC(CO)C(O)C2(F)F)c(=O)n1` (centres undefined), the viability, T/C is 98.3% and 103% (compound 0.000949 µM); 95.8% and 101% (compound 0.003 µM); 97.9% and 81.6% (compound 0.00949 µM); 66.4% and 65.5% (compound 0.03 µM); 68.4% and 66.2% (compound 0.0949 µM); 63.8% (compound 0.3 µM). The IC50 (curve of compound) was more than 0.3 µM.

Take `Cn1ncnc1C1c2n[nH]c(=O)c3cc(F)cc(c23)NC1c1ccc(F)cc1` (centres undefined): the viability, T/C (compound 0.000316 µM) is 107% and 97.8%; the viability, T/C (compound 0.001 µM) is 104% and 106%; the viability, T/C (compound 0.00316 µM) is 99.1% and 105%; the viability, T/C (compound 0.01 µM) was 101% and 100%; the viability, T/C (compound 0.0316 µM) is 96.3% and 98.4%; the viability, T/C (compound 0.1 µM) is 96.8% and 95.6%. The IC50 (curve of compound) was more than 0.1 µM.

For `COc1cc(Nc2ncc3c(n2)-c2ccc(Cl)cc2C(c2c(F)cccc2OC)=NC3)ccc1C(=O)O` + NC1CC1c1ccc(-c2cccc(O)c2)cc1, the IC50 is more than 1 µM under setting [1]; more than 1 µM under setting [2]; more than 1 µM under setting [3]; more than 1 µM under setting [4]; more than 1 µM under setting [5]. For the same molecule, the viability, T/C reads like this: (second compound 0.1 µM, first compound 0.00316 µM) 88.2%; (second compound 0.1 µM, first compound 0.01 µM) 92.9%; under setting [6], 105%; under setting [7], 104%; under setting [8], 121%; under setting [9], 143%. Besides, the viability, T/C reads like this: (second compound 0.316 µM, first compound 0.00316 µM) 87.3%; (second compound 0.316 µM, first compound 0.01 µM) 97.6%; under setting [10], 109%; under setting [11], 113%; under setting [12], 120%; under setting [13], 119%. Also, the viability, T/C (second compound 1 µM, first compound 0.00316 µM) was 93%; the viability, T/C (second compound 1 µM, first compound 0.01 µM) was 115%; the viability, T/C under setting [14] was 118%; the viability, T/C under setting [15] is 126%; the viability, T/C under setting [16] is 116%; the viability, T/C under setting [17] was 118%. Moreover, the viability, T/C by setting is: (second compound 3.16 µM, first compound 0.00316 µM) 98.5%; (second compound 3.16 µM, first compound 0.01 µM) 104%; under setting [18], 108%; under setting [19], 110%; under setting [20], 124%; under setting [21], 112%. For the same molecule, the viability, T/C (second compound 10 µM, first compound 0.00316 µM) was 98.3%; the viability, T/C (second compound 10 µM, first compound 0.01 µM) was 114%; the viability, T/C under setting [22] was 112%; the viability, T/C under setting [23] is 119%; the viability, T/C under setting [24] was 125%; the viability, T/C under setting [25] is 118%.

`COc1ccc([C@@H](O)c2cc(-c3ncnc4cc(N5CCOCC5)ccc34)c(F)cc2Cl)nn1` + NC1CCC(NC2CC2c2ccccc2)CC1: the IC50 is more than 10 µM under setting [1]; more than 10 µM under setting [2]; more than 10 µM under setting [3]; more than 10 µM under setting [4]; more than 10 µM under setting [5]. For the same molecule, the viability, T/C runs as follows: under setting [6], 102%; under setting [7], 99.2%; under setting [8], 88.9%; under setting [9], 81.3%; (second compound 0.1 µM, first compound 3.16 µM) 72.7%; (second compound 0.1 µM, first compound 10 µM) 53.7%. For the same molecule, the viability, T/C by setting is: under setting [10], 103%; under setting [11], 102%; under setting [12], 96.6%; under setting [13], 85.5%; (second compound 0.316 µM, first compound 3.16 µM) 73.4%; (second compound 0.316 µM, first compound 10 µM) 54.6%. In addition, the viability, T/C is 95.7% under setting [14]; 105% under setting [15]; 93.4% under setting [16]; 90.5% under setting [17]; 76% (second compound 1 µM, first compound 3.16 µM); 58% (second compound 1 µM, first compound 10 µM). The viability, T/C by setting is: under setting [18], 103%; under setting [19], 103%; under setting [20], 88.9%; under setting [21], 88.9%; (second compound 3.16 µM, first compound 3.16 µM) 69.5%; (second compound 3.16 µM, first compound 10 µM) 54%. The viability, T/C is 102% under setting [22]; 104% under setting [23]; 89.8% under setting [24]; 84.2% under setting [25]; 73.3% (second compound 10 µM, first compound 3.16 µM); 57% (second compound 10 µM, first compound 10 µM).
